# Laboratory results taken from patent US11136297B2, “Compositions and methods for treating cancer” (THE REGENTS OF THE UNIVERSITY OF CALIFORNIA, priority 2016, dated 2021).
# What was measured:
# [1] = molecular target: H-Ras(M72C) GppNHp (Homo sapiens, UniProt P01112, M72C); test: βME50 and percent labeling of tethering fragments, GppNHp state; format: binding; set-up: Labeling studies were conducted using the 1-166 H-Ras(M72C) construct containing all endogenous cysteines; His6; made in house; host or cells: Escherichia coli BL21(DE3)
# Description: FIG. 32. […] Percent labeling against H-Ras(M72C) GDP and GppNHp at the screening βME concentration (1 mM) are graphed.
# A tethering library of 960 disulfides were screened against 1-169 K-Ras(M72C) GDP using intact protein mass spectrometry to monitor percent modification (See Methods, and FIG. 37). […] To better prioritize tethering fragments, a βME50 value (the concentration of βME needed to reduce disulfide fragment modification to 50%) was determined for each compound. A higher βME50 value corresponds to a better fragment as it can bind with increasing concentrations of competitive thiol (Erlanson et al., 2004; Yang et al., 2009).
# [2] = molecular target: H-Ras(M72C) GDP (Homo sapiens, UniProt P01112, M72C); test: Intrinsic nucleotide affinity by EDTA catalyzed nucleotide exchange (Raf-1-RBD pull down readout); format: biochemical; set-up: and H-Ras (residues 1-166) were transformed into Escherichia coli; His6; made in house; host or cells: Escherichia coli BL21(DE3)
# Description: Intrinsic Nucleotide Affinity by EDTA Catalyzed Nucleotide Exchange. For each EDTA catalyzed reaction, the total reaction volume was 500 μL. Each reaction had the following final composition: 100 nM Ras GDP (1 μg, 5 μL of 0.2 mg/mL Ras stock), 75 nM BSA (2.5 μg, 5 μL of 0.5 mg/mL BSA stock), 100 μM total nucleotide concentration (5 μL of various ratios of GDP:GppNHp from 10 mM stock solutions), 10 mM of EDTA (10 μL of 0.5M EDTA pH 8.0), 64 mM of MgCl2 (16 μL of 2M MgCl2 stock), 3 μM of His6-MBP-Raf-1-RBDwitt (80 μg, 18.3 μL of 4.38 mg/mL stock of His6-MBP-Raf-1-RBDwitt), and Raf Pull Down Buffer to volume (25 mM Tris (pH 7.2), 150 mM NaCl, 5 mM MgCl2, 1% NP-40, 5% glycerol, 20 mM imidazole). Prior to initiating the EDTA catalyzed nucleotide exchange, the Ras, BSA, nucleotide, and Raf Pull Down Buffer were mixed by pipette on ice. To each tube, the EDTA was added, sample was inverted X 3, and then placed in a pre-warmed tube rack at 30° C. The exchange was allowed to occur at 30° C. for 15 minutes, inverting each tube X 3 every 5 minutes. Once the 15 minutes of exchange was complete, MgCl2 was added to each tube and inverted X 3 and placed on ice for 15 minutes. During the quenching on ice, add 100 μL Ni-NTA slurry (Qiagen) to a cellulose acetate spin cup and spin at 5,000 rpm on a tabletop centrifuge for 30 seconds. Wash the beads with 400 μL of Raf Pull Down Buffer to wash away bead storage buffer. Before adding the beads and His6-tagged Raf-1-RBDwitt, take a 10 μL sample as a loading control and quench it with 5 μL 5×SDS loading buffer. To each spin cup filled with washed Ni-NTA beads, add the quenched EDTA catalyzed exchange reaction and the His6-tagged Raf-1-RBDwitt. Seal the spin cup with parafilm and let rotate at 4° C. for 1 h. After mixing, centrifuge the sample for 30 seconds at 5,000 rpm. Toss flow through. Wash the beads×5 with 400 μL of Raf Pull Down Buffer. After last wash, centrifuge one last time to remove any excess buffer stuck to the beads. To each cup, add 50 μL of 5×SDS loading buffer and mix by vortexing. Let the buffer sit on the beads for 5 minutes and then elute into a fresh tube by centrifuging at 5000 rpm for 1.5 minutes. Load 10 μL of each loading control sample and 25 μL of each eluted pull down onto a SDS-PAGE gel and transfer to a nitrocellulose blot for Western Blot analysis. Block with 5% BSA TBS buffer and then blot with pan Ras primary antibody at a 1:500 dilution in 5% BSA in TBST (Cell Signaling #3965). Blots were read out using LICOR compatible secondary antibodies and quantified. Signal from each GDP-only (i.e. 0% GppNHp) exchange was subtracted as background from the 20%, 50%, and 66% GppNHp pull-down signals for each protein construct. The signal for the GppNHp only lane (i.e. 100% GppNHp) was normalized to 1 and all other signals were made relative to this band within each protein construct tested.
structure (smiles),measurement,setting,value
"COc1ccc(-n2ncc(C(=O)NCCCSSCCN(C)C)c2C(F)(F)F)cc1 [Compound 2C07, N-(3-((2-(dimethylamino)ethyl)disulfanyl)propyl)-1-(4-methoxyphenyl)-5-(trifluoromethyl)-1H-pyrazole-4-carboxamide]",βME50,"[1]; H-Ras(M72C) GppNHp, βME concentration that reduces fragment modification to 50%",1.10 mM
same,labeling of H-Ras(M72C) GppNHp,[1]; disulfide tethering at Cys 72,readily modifies
same,Normalized Average (Nucleotide Exchange PD Assay),"[2]; H-Ras(M72C) 2C07, GppNHp only, normalized to 1",1.00
same,Normalized Average (Nucleotide Exchange PD Assay),"[2]; H-Ras(M72C) 2C07, GTP:GDP 0, background subtracted",0.00
same,Normalized Average (Nucleotide Exchange PD Assay),"[2]; H-Ras(M72C) 2C07, GTP:GDP 0.2, relative to GppNHp-only signal",0.03
same,Normalized Average (Nucleotide Exchange PD Assay),"[2]; H-Ras(M72C) 2C07, GTP:GDP 0.5, relative to GppNHp-only signal",0.12
same,Normalized Average (Nucleotide Exchange PD Assay),"[2]; H-Ras(M72C) 2C07, GTP:GDP 0.67, relative to GppNHp-only signal",0.13
same,nucleotide preference of 2C07 bound Ras,"[2]; varying ratios of GDP:GppNHp, EDTA catalyzed exchange",nucleotide preference for GDP over GppNHp
